According to patent publication US20230295149A1, “MONOBACTAM COMPOUNDS, THEIR PREPARATION AND USE AS ANTIBACTERIAL AGENTS” (NINGXIA ACADEMY OF AGRICULTURE AND FORESTRY SCIENCES, priority 2020, published 2023):

Columns and labels:
Test in all cases: MIC determination, broth microdilution
Assay type in all cases: cell-based
E. cloacae 700323 = conditions: Enterobacter cloacae, 37° C., 18-24 hours, read-out: Strain 6 MIC
Protocol: (§1) Compounds of this invention were tested for antimicrobial activity by determining minimum inhibitory concentrations (MICs, in μg/mL) using the broth microdilution method according to the guidelines of the Clinical Laboratories and Standards Institute (“Methods for Dilution Antimicrobial Susceptibility Tests for Bacteria that Grow Aerobically”, Approved standard, 7th ed., Clinical and Laboratory Standards Institute (CLSI) Document M7-A8, Wayne, Pa., USA, 2009.). Test compounds were dissolved in DMSO. The compounds were then diluted in microbial growth medium (Mueller Hinton Broth II, cation adjusted) resulting in a final concentration range of 0.063-64 μg/mL in serial two-fold dilution. In all cases the final DMSO concentration was less than 0.5%. Bacteria were added to 96-well microtitre plates containing the two-fold dilutions of the compounds; the final cell density was approximately 5×10^5 colony forming units/mL (CFU/mL). Plates were incubated at 37° C. for 18-24 hours and read visually. The MIC, i.e. the lowest concentration of the test compound that inhibited visible growth of the bacteria, was recorded. The same assay conditions were used when the compounds of this invention were tested in combination with—lactamase inhibitors. While the compounds of this invention were serially diluted as described above, a constant concentration of the inhibitor of 4 mg/L was used. Bacterial strains that were used to evaluate the antimicrobial activity using the MIC determination included but were not limited to E. coli clinical isolate, E. coli 8739, K. pneumoniae clinical isolate, K. pneumoniae 700603, E. cloacae clinical isolate, E. cloacae 700323, A. baumannii clinical isolate, A. baumannii 19606, P. aeruginosa clinical isolate, P. aeruginosa 9027.

A. baumannii 19606 = conditions: Acinetobacter baumannii, 37° C., 18-24 hours, read-out: Strain8 MIC
Protocol: as §1

[1] = tested on: P. aeruginosa clinical isolate; conditions: Pseudomonas aeruginosa, 37° C., 18-24 hours, read-out: Strain 9 MIC
Protocol: as §1

K. pneumoniae 700603 = conditions: Klebsiella pneumoniae, 37° C., 18-24 hours, read-out: Strain 4 MIC
Protocol: as §1

P. aeruginosa 9027 = conditions: Pseudomonas aeruginosa, 37° C., 18-24 hours, read-out: Strain 10 MIC
Protocol: as §1

E. coli clinical isolate = conditions: Escherichia coli, 37° C., 18-24 hours, read-out: Strain 1 MIC
Protocol: as §1

E. coli 8739 = conditions: Escherichia coli, 37° C., 18-24 hours, read-out: Strain 2 MIC
Protocol: as §1

[2] = tested on: A. baumannii clinical isolate; conditions: Acinetobacter baumannii, 37° C., 18-24 hours, read-out: Strain 7 MIC
Protocol: as §1

[3] = tested on: K. pneumoniae clinical isolate; conditions: Klebsiella pneumoniae, 37° C., 18-24 hours, read-out: Strain 3 MIC
Protocol: as §1

[4] = tested on: E. cloacae clinical isolate; conditions: Enterobacter cloacae, 37° C., 18-24 hours, read-out: Strain5 MIC
Protocol: as §1

Structure (SMILES) | MIC (E. cloacae 700323) | MIC (A. baumannii 19606) | MIC [1] | MIC (K. pneumoniae 700603) | MIC (P. aeruginosa 9027) | MIC (E. coli clinical isolate) | MIC (E. coli 8739) | MIC [2] | MIC [3] | MIC [4]
C[C@H]1[C@H](NC(=O)/C(=N\OC(C)(C)C(=O)O)c2csc(N)n2)C(=O)N1S(=O)(=O)O [AZT, Aztreonam, reference compound] | > 64 µg/mL | 32 µg/mL | > 64 µg/mL | 64 µg/mL | 16 µg/mL | > 64 µg/mL | 16 µg/mL | > 64 µg/mL | 64 µg/mL | > 64 µg/mL
CC(C)(O/N=C(\C(=O)N[C@@H]1C(=O)N2C(C(=O)[O-])=C(C[n+]3ccccc3)CS[C@H]12)c1csc(N)n1)C(=O)O [CAZ, Ceftazidime, reference compound] | > 64 µg/mL | > 64 µg/mL | > 64 µg/mL | > 64 µg/mL | > 64 µg/mL | > 64 µg/mL | > 64 µg/mL | > 64 µg/mL | > 64 µg/mL | > 64 µg/mL
CC1(C)[C@H](NC(=O)/C(=N\O[C@@H](COc2ccc(C(=N)NC3CCNCC3)cc2)C(=O)O)c2nc(N)sc2Cl)C(=O)N1OS(=O)(=O)O [Example 1, (S)-2-((((Z)-1-(2-Amino-5-chlorothiazol-4-yl)-2-(((S)-2,2-dimethyl-4-oxo-1-(sulfooxy)azetidin-3-yl)amino)-2-oxoethylidene)amino)oxy)-3-(4-(N-(piperidin-4-yl)carbamimidoyl)phenoxy)propanoic acid] | 8 µg/mL | 8 µg/mL | 2 µg/mL | 8 µg/mL | 2 µg/mL | 8 µg/mL | 1 µg/mL | 16 µg/mL | 4 µg/mL | 8 µg/mL
CC1(C)[C@H](NC(=O)/C(=N\O[C@@H](COc2ccc(C(=N)NC3CCNCC3)cc2)C(=O)O)c2nsc(N)n2)C(=O)N1OS(=O)(=O)O [Example 2, (S)-2-((((Z)-1-(5-Amino-1,2,4-thiadiazol-3-yl)-2-(((S)-2,2-dimethyl-4-oxo-1-(sulfooxy)azetidin-3-yl)amino)-2-oxoethylidene)amino)oxy)-3-(4-(N-(piperidin-4-yl)carbamimidoyl)phenoxy)propanoic acid] | 64 µg/mL | 32 µg/mL | 1 µg/mL | 64 µg/mL | 1 µg/mL | 0.5 µg/mL | 0.125 µg/mL | 8 µg/mL | 16 µg/mL | 8 µg/mL
CC1(C)[C@H](NC(=O)/C(=N\O[C@@H](COc2ccc(C(=N)N[C@@H]3CCCNC3)cc2)C(=O)O)c2nc(N)sc2Cl)C(=O)N1OS(=O)(=O)O [Example 3, (S)-2-((((Z)-1-(2-Amino-5-chlorothiazol-4-yl)-2-(((S)-2,2-dimethyl-4-oxo-1-(sulfooxy)azetidin-3-yl)amino)-2-oxoethylidene)amino)oxy)-3-(4-(N—((R)-piperidin-3-yl)carbamimidoyl)phenoxy)propanoic acid] | 8 µg/mL | 8 µg/mL | 4 µg/mL | 8 µg/mL | 1 µg/mL | 2 µg/mL | 0.5 µg/mL | 16 µg/mL | 2 µg/mL | 8 µg/mL
CC1(C)[C@H](NC(=O)/C(=N\O[C@@H](COc2ccc(C(=N)N[C@@H]3CCCNC3)cc2)C(=O)O)c2nsc(N)n2)C(=O)N1OS(=O)(=O)O [Example 4, (S)-2-((((Z)-1-(5-Amino-1,2,4-thiadiazol-3-yl)-2-(((S)-2,2-dimethyl-4-oxo-1-(sulfooxy)azetidin-3-yl)amino)-2-oxoethylidene)amino)oxy)-3-(4-(N—((R)-piperidin-3-yl)carbamimidoyl)phenoxy)propanoic acid] | 64 µg/mL | 16 µg/mL | 2 µg/mL | 64 µg/mL | 1 µg/mL | 0.25 µg/mL | 0.25 µg/mL | 8 µg/mL | 8 µg/mL | 16 µg/mL
CC1(C)[C@H](NC(=O)/C(=N\O[C@@H](COc2ccc(C(=N)N[C@H]3CCNC3)cc2)C(=O)O)c2nc(N)sc2Cl)C(=O)N1OS(=O)(=O)O [Example 5, (S)-2-((((Z)-1-(2-Amino-5-chlorothiazol-4-yl)-2-(((S)-2,2-dimethyl-4-oxo-1-(sulfooxy)azetidin-3-yl)amino)-2-oxoethylidene)amino)oxy)-3-(4-(N—((S)-pyrrolidin-3-yl)carbamimidoyl)phenoxy)propanoic acid] | 4 µg/mL | 4 µg/mL | 1 µg/mL | 4 µg/mL | 0.5 µg/mL | 0.25 µg/mL | 0.25 µg/mL | 8 µg/mL | 1 µg/mL | 2 µg/mL
CC1(C)[C@H](NC(=O)/C(=N\O[C@@H](COc2ccc(C(=N)N[C@H]3CCNC3)cc2)C(=O)O)c2nsc(N)n2)C(=O)N1OS(=O)(=O)O [Example 6, (S)-2-((((Z)-1-(5-Amino-1,2,4-thiadiazol-3-yl)-2-(((S)-2,2-dimethyl-4-oxo-1-(sulfooxy)azetidin-3-yl)amino)-2-oxoethylidene)amino)oxy)-3-(4-(N—((S)-pyrrolidin-3-yl)carbamimidoyl)phenoxy)propanoic acid] | 32 µg/mL | 16 µg/mL | 2 µg/mL | 64 µg/mL | 0.5 µg/mL | 0.5 µg/mL | 0.125 µg/mL | 4 µg/mL | 1 µg/mL | 4 µg/mL
CC1(C)[C@H](NC(=O)/C(=N\O[C@@H](COc2ccc(C(=N)NC3CNC3)cc2)C(=O)O)c2nsc(N)n2)C(=O)N1OS(=O)(=O)O [Example 7, (S)-2-((((Z)-1-(5-Amino-1,2,4-thiadiazol-3-yl)-2-(((S)-2,2-dimethyl-4-oxo-1-(sulfooxy)azetidin-3-yl)amino)-2-oxoethylidene)amino)oxy)-3-(4-(N-(azetidin-3-yl)carbamimidoyl)phenoxy)propanoic acid] | 16 µg/mL | 8 µg/mL | 0.5 µg/mL | 32 µg/mL | 0.5 µg/mL | 0.125 µg/mL | 0.25 µg/mL | 4 µg/mL | 2 µg/mL | 8 µg/mL
CC1(C)[C@H](NC(=O)/C(=N\O[C@@H](COc2ccc(C(=N)NC3CNC3)cc2)C(=O)O)c2nc(N)sc2Cl)C(=O)N1OS(=O)(=O)O [Example 8, (S)-2-((((Z)-1-(2-Amino-5-chlorothiazol-4-yl)-2-(((S)-2,2-dimethyl-4-oxo-1-(sulfooxy)azetidin-3-yl)amino)-2-oxoethylidene)amino)oxy)-3-(4-(N-(azetidin-3-yl)carbamimidoyl)phenoxy)propanoic acid] | 8 µg/mL | 4 µg/mL | 1 µg/mL | 8 µg/mL | 1 µg/mL | 0.5 µg/mL | 0.25 µg/mL | 8 µg/mL | 8 µg/mL | 8 µg/mL
C[C@H]1[C@H](NC(=O)/C(=N\O[C@@H](COc2ccc(C(=N)N[C@H]3CCCNC3)cc2)C(=O)O)c2nc(N)sc2Cl)C(=O)N1S(=O)(=O)O [Example 9, (S)-2-((((Z)-1-(2-Amino-5-chlorothiazol-4-yl)-2-(((2S,3S)-2-methyl-4-oxo-1-sulfoazetidin-3-yl)amino)-2-oxoethylidene)amino)oxy)-3-(4-(N—((S)-piperidin-3-yl)carbamimidoyl)phenoxy)propanoic acid] | 32 µg/mL | 16 µg/mL | 16 µg/mL | 64 µg/mL | 1 µg/mL | 1 µg/mL | 0.5 µg/mL | 32 µg/mL | 32 µg/mL | 64 µg/mL
CC1(C)[C@H](NC(=O)/C(=N\O[C@@H](COc2ccc(C(=N)N[C@@H]3CCNC3)cc2)C(=O)O)c2nc(N)sc2Cl)C(=O)N1OS(=O)(=O)O [Example 10, (S)-2-((((Z)-1-(2-Amino-5-chlorothiazol-4-yl)-2-(((S)-2,2-dimethyl-4-oxo-1-(sulfooxy)azetidin-3-yl)amino)-2-oxoethylidene)amino)oxy)-3-(4-(N—((R)-pyrrolidin-3-yl)carbamimidoyl)phenoxy)propanoic acid] | 4 µg/mL | 8 µg/mL | 2 µg/mL | 1 µg/mL | 2 µg/mL | 1 µg/mL | 0.25 µg/mL | 8 µg/mL | 1 µg/mL | 2 µg/mL
